Test results taken from PubChem BioAssay AID624491 (Broad Institute, 2012).

Test system: D54 ERlucT glycosylation luciferase reporter, luminescence, 24 h
Test: N-linked glycosylation inhibitors, luciferase reporter, dose response, D54 ERlucT cells, luminescence, cherry-picks (AID 624491);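 note: signal gain reflects blocked N-linked glycosylation of a luciferase reporter; actives raise luciferase signal so AC26 marks activators of the reporter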

Row | Structure (SMILES) | AC26 [nM]
1 | CC12CC[C@H]3[C@@H](CCC4(O)C[C@H](O)CCC34/C=N/NC(=O)c3ccccc3O)C1(O)CCC2C1=CC(=O)OC1 (some centres undefined) | 6060
2 | CN(C)C(=O)c1cccc(-c2cnc3c(NC=O)cc(-c4ccccc4Cl)cn23)c1 | 6820
3 | CCC(C)C(=O)OC1CCC=C2C=CC(C)C(CCC3CC(O)CC(=O)O3)C21 (centres undefined) | 34.8
4 | CC(=O)N(C1=C(Cl)C(=O)c2ccccc2C1=O)C1CCCCC1 | 31.1
5 | COc1ccc(NC(=O)C2(C)Cc3c(-c4cccc(C(N)=O)c4)ccnc3O2)cn1 (centres undefined) | 10700
6 | COc1ccc(Nc2nc(-c3sc(C)nc3C)cs2)c(OC)c1 | 1240
7 | Cc1c(-c2cccc(Cl)c2)nc2ccccc2c1C(=O)OC/C(O)=C(\C#N)c1nc2ccccc2[nH]1 | 5750
8 | O=C(NCCCN1CCOCC1)c1cc(-c2ccc(F)cc2)on1 | 14000
9 | COc1cc(NC(=O)c2cc(-c3ccccc3)nc3c2cnn3C(C)C)cc(OC)c1OC | 1150
10 | O=C(N/N=C\C=C\c1ccc([N+](=O)[O-])o1)c1cccs1 | 7850
11 | Cc1cccn2c(=O)c3cc(C(=O)NC4CCCC4)c(=N)n(CCc4ccccc4)c3nc12 | 1280
12 | CCN(CC)S(=O)(=O)c1cccc(C(=O)N/N=C/c2ccc([N+](=O)[O-])o2)c1 | 2340
13 | COc1cc(OC)cc(C(=O)N/N=C/c2ccc(OC)c(COc3ccc(F)cc3)c2)c1 | 2250
14 | CC1(C(=O)NCc2cccs2)Cc2c(-c3ccc4c(c3)OCO4)ccnc2O1 (centres undefined) | 2060
15 | COc1ccc(NC(=O)C(=O)c2cn(CC(=O)N3CCCC3)c3ccccc23)cc1 | 105
16 | COC(=O)C1=C(c2cc3ccccc3s2)C[C@@H]2CC[C@H]1N2C(=O)N1CCOCC1 | 13600
17 | O=C(COc1ccccc1CNCc1ccccc1)Nc1ccccc1 | 850
18 | O=c1[nH]c(CSc2ncnc3sc(-c4ccccc4)cc23)nc2ccccc12 | 4470
19 | O=C1NC[C@H](Cc2ccccc2)N(C[C@H]2CCCN2C[C@H](Cc2ccccc2)N2C[C@H](Cc3ccc(O)cc3)N(CCc3ccccc3)C(=O)C2=O)C1=O | 5790
20 | COc1cc(-c2nc3ccc(N4CCN(C)CC4)cc3[nH]2)cc(OC)c1OC | 535
21 | C/C(=N\O)C(=O)C(CN1CCCCC1)CN1CCCCC1 | 1500
22 | Cc1cc(NC(=O)CSc2nc3sc(C)c(C)c3c(=O)n2C2CCCC2)no1 | 4700
23 | O=C(NCc1cccs1)C1Cc2c(-c3ccc(Cl)cc3)ccnc2O1 (centres undefined) | 1670
24 | Cc1ccc(-c2cnc(C3CC3)o2)cc1S(=O)(=O)Nc1ccccc1 | 9070
25 | CCOC(=O)N1CCC(NC(=O)c2ccc3c(c2)N=C(C)c2c(C)ccc(C)c2S3)CC1 | 441
26 | COc1ccc2c(c1)OC[C@H]1[C@H]2N2C(=O)c3ccc(C)cc3NC(=O)[C@@]2(C)[C@H]1c1ccccc1 | 926
27 | C/C(=N\NC(=O)c1c(Cl)c(C)nn1C)c1ccc(NC(=O)C2CCC2)cc1 | 3.55

Row | Structure (SMILES) | AC26 [nM]
28 | O=c1[nH]c(-c2ccccc2)nc2sc(-c3ccccc3)cc12 | 2320
29 | CCCCN(CC)CCCNC(=O)c1cc2c(=O)n(C)c3ccccc3c2n1C | 3310
30 | COc1ccc(/C=C2\SC(=S)N(CCC(=O)NC3CCCC3)C2=O)cc1OC | 6270
31 | Cn1cccc1/C=C1\SC(=Nc2ccccc2)NC1=O | 1150
32 | CCn1c(=S)[nH]c2cc(S(=O)(=O)N3CCCCC3)ccc21 | 1090
33 | Cn1c(=O)cc2c3c(c(N4CCCCC4)ccc31)C(=O)c1ccccc1-2 | 4360
34 | CN1/C(=C/C=C(/C#N)C(N)=O)C(C)(C)c2ccccc21 | 55.6
35 | Cc1c2cnccc2c(C)c2c1oc1ccccc12 | 2820
36 | Cc1ccc(S(=O)(=O)Cc2ccc(C(=O)N3CCN(c4cccc(C)c4C)CC3)o2)cc1 | 3450
37 | Cc1cc(NC(=O)NC(=O)c2ccccc2NC(=O)CN)ccc1Oc1ncc(Br)cn1 | 11000
38 | COCCCNC(=O)Cc1c(C)c2c(cc(C)c3c(C(C)(C)C)coc32)oc1=O | 1510
39 | CC(CC(=O)Nc1ccc2c(c1)c(=O)n(C)n2-c1cccs1)c1ccccc1 (centres undefined) | 6270
40 | O=C(Nc1cccc(-n2cnnn2)c1)c1cc(Cl)ccc1Cl | 4570
41 | c1ccc(CNc2nc(NCCc3ccncc3)c3sccc3n2)cc1 | 1120
42 | O=C1OCC2=C1C(c1ccc3c(c1)OCO3)c1cc3c(cc1O2)OCO3 (centres undefined) | 661
43 | COc1ccc(CNC(=O)c2cccc3c(-c4cnn(C)c4)coc23)cc1OC | 3960
44 | O=[N+]([O-])c1ccc(Sc2cc[n+]([O-])c3ccccc23)c([N+](=O)[O-])c1 | 5960
45 | Clc1cccc(N2Cc3cc(-c4ccccc4)ccc3-n3nncc3C2)c1 | 3580
46 | CCOC(=O)N/N=C/c1ccc(N(CC)CC)cc1O | 2990
47 | Cc1cc(-n2c(SCC(=O)NCCC3=CCCCC3)nc3n[nH]c(C)c3c2=N)ccc1Cl | 4030
48 | O=C(/C=C/Sc1ccc(C(F)(F)F)cn1)c1ccccc1 | 3910
49 | O=C(Nc1ncccc1O)c1ccc(S(=O)(=O)Nc2ccccc2)cc1 | 2190
50 | Cc1ccc(S(=O)(=O)NC2=C(N3CCN(Cc4ccccc4)CC3)C(=O)c3ccccc3C2=O)cc1 | 3810
51 | C=CCNc1nc(Nc2ccc(OC)c(OC)c2)c2sc(-c3ccccc3)cc2n1 | 513
52 | Cc1ccc(-c2cc(C(=O)NCC(c3ccccc3)N(C)C)c3ccccc3n2)o1 (centres undefined) | 11400
53 | O=C(/C=C/c1ccco1)Nc1nnc(-c2ccco2)s1 | 310
54 | NC(=O)CC(NC(=O)Cc1ccc(Br)cc1)c1ccc(NC2CCN(Cc3ccccc3)CC2)c([N+](=O)[O-])c1 (centres undefined) | 496
